# Patent US20260286396A1, “AXL KNOCK OUT CAR T CELLS AND METHODS FOR USE THEREOF” (priority 2023, published 2026)
# System: CART19 cells
# Assay: RNA sequencing of CART19 cells with Ingenuity pathway analysis (pathways, upstream regulators)
# Type: cell-based, human
# Conditions: CART19+JeKo-1, 30 nM TP-0903 vs vehicle, 24 h
# Method: CART19 cells were isolated using CD4 and CD8 microbeads to […] the JeKo-1 target cells; this isolation step was performed twice to eliminate the possible contamination of JeKo-1 cells. RNA was isolated from the CART19 cells using QIAGEN RNEASY® Plus Mini Kit. RNA was further treated with DNase I (QIAGEN) and purified using RNA Clean & Concentrator (Zymo Research). […] The fastq files were viewed in FastQC to check for quality (Cox et al., Mol Ther., 29 (4): 1529-1540, 2020). After verifying the lack of adapter sequences with FastQC, Cutadapt (Martin, EMBnet, 17:10-12, 2011) was used to filter for reads greater than 32 base pairs. Output files were re-checked for quality using FastQC. The latest human reference genome (GRCh38.p13) was downloaded from NCBI. Genome index files were generated using STAR (Cox et al. 2020, supra, and Dobin et al., Bioinformatics, 29:15-21, 2012). Paired end reads from fastq files were mapped to the genome for each condition. HTSeq was used to generate expression counts for each gene (Cox et al. 2020, supra; and Putri et al., Bioinformatics, 38:2943-2945, 2022). […] The disruption efficiency of the CRISPR/Cas9 GM-CSF knockout was determined using targeted sequencing through PCR and TIDE analysis (software available at tide.nki.nl) as described elsewhere (Sakemura et al. 2021, supra).
# RNA sequencing of CART19 cells was then performed. […] Data were analyzed with the use of QIAGEN Ingenuity Pathway Analysis (IPA) (digitalinsights.qiagen.com/IPA; Krämer et al., Bioinformatics 30 (4): 523-530, 2014).
compound,measurement,value
"CN1CCN(Cc2ccc(Nc3ncc(Cl)c(Nc4ccccc4S(=O)(=O)N(C)C)n3)cc2)CC1 [TP-0903, Dubermatinib]",upstream regulator ALDH2 Activation Z-Score,1.432
same,upstream regulator APP Activation Z-Score,−2.018
same,upstream regulator APP Predicted Activation State,inhibited
same,upstream regulator ARNT Activation Z-Score,−1.795
same,upstream regulator ATF3 Activation Z-Score,−1.227
same,upstream regulator ATF4 Activation Z-Score,−2.62
same,upstream regulator ATF4 Predicted Activation State,inhibited
same,upstream regulator BCAP31 Activation Z-Score,−0.968
same,upstream regulator BCL3 Activation Z-Score,−1.353
same,upstream regulator BCL6 Activation Z-Score,0.949
same,upstream regulator BCR (COMPLEX) Activation Z-Score,−1.126
same,upstream regulator BMP7 Activation Z-Score,−1.089
same,upstream regulator BMP10 Activation Z-Score,−0.707
same,upstream regulator BTK Activation Z-Score,−1.091
same,upstream regulator C3 Activation Z-Score,−0.378
same,upstream regulator CALCA Activation Z-Score,0.887
same,upstream regulator CCK Activation Z-Score,0.437
same,upstream regulator CCL2 Activation Z-Score,−1.368
same,upstream regulator CCND1 Activation Z-Score,0.042
same,upstream regulator CD5 Activation Z-Score,−1.732
same,upstream regulator CD28 Activation Z-Score,−1.369
same,upstream regulator CD38 Activation Z-Score,−1.353
same,upstream regulator CD40LG Activation Z-Score,−2.045
same,upstream regulator CD40LG Predicted Activation State,inhibited
same,upstream regulator CD44 Activation Z-Score,−1.835
same,upstream regulator CD274 Activation Z-Score,0.478
same,upstream regulator CG Activation Z-Score,−0.872
same,upstream regulator COMMD1 Predicted Activation State,activated
same,upstream regulator DUSP10 Activation Z-Score,0.392
same,upstream regulator EBF1 Activation Z-Score,−2.182
same,upstream regulator EBF1 Predicted Activation State,inhibited
same,upstream regulator EDN1 Activation Z-Score,−1.02
same,upstream regulator EIF2AK4 Activation Z-Score,−2.395
same,upstream regulator EIF2AK4 Predicted Activation State,inhibited
same,upstream regulator ERBB2 Activation Z-Score,−2.46
same,upstream regulator ERBB2 Predicted Activation State,inhibited
same,upstream regulator ERK1/2 Activation Z-Score,−0.915
same,upstream regulator ERK Activation Z-Score,−2.029
same,upstream regulator ERK Predicted Activation State,inhibited
same,upstream regulator FHL2 Activation Z-Score,−0.64
same,upstream regulator FMR1 Activation Z-Score,1.976
same,upstream regulator FYN Activation Z-Score,−1.446
same,upstream regulator HAVCR1 Activation Z-Score,0.104
same,upstream regulator HNF1A-AS1 Activation Z-Score,−2
same,upstream regulator HNF1A-AS1 Predicted Activation State,inhibited
same,upstream regulator ID3 Activation Z-Score,1.671
same,upstream regulator IFN ALPHA/BETA Activation Z-Score,−1.195
same,upstream regulator IGF1 Activation Z-Score,−1.148
same,upstream regulator IGF1R Activation Z-Score,−0.652
same,upstream regulator IKBKB Activation Z-Score,−2.146
same,upstream regulator IKBKB Predicted Activation State,inhibited
same,upstream regulator IL1 Activation Z-Score,−1.785
same,upstream regulator IL4R Activation Z-Score,−0.187
same,upstream regulator IL10 Activation Z-Score,1.633
same,upstream regulator IL12 (FAMILY) Activation Z-Score,1.39
same,upstream regulator IL15 Activation Z-Score,−1.117
same,upstream regulator IL18 Activation Z-Score,−0.28
same,upstream regulator IL21 Activation Z-Score,0.183
same,upstream regulator IL27RA Activation Z-Score,2.207
same,upstream regulator IL27RA Predicted Activation State,activated
same,upstream regulator INSIG1 Activation Z-Score,1.495
same,upstream regulator INSULIN Activation Z-Score,−1.452
same,upstream regulator IRF4 Activation Z-Score,0.415
same,upstream regulator ITGB2 Activation Z-Score,−0.128
same,upstream regulator KCNIP3 Activation Z-Score,0.378
same,upstream regulator KDM1A Activation Z-Score,0.351
same,upstream regulator KRAS Activation Z-Score,−0.772
same,upstream regulator LEF1 Activation Z-Score,0.367
same,upstream regulator LGALS3 Activation Z-Score,−0.747
same,upstream regulator LTA Activation Z-Score,−1.763
same,upstream regulator LTB Activation Z-Score,−1.246
same,upstream regulator LTBR Activation Z-Score,−1.664
same,upstream regulator MAPK3 Activation Z-Score,−0.896
same,upstream regulator MAPK7 Activation Z-Score,−0.64
same,upstream regulator MBP Activation Z-Score,0.577
same,upstream regulator MED1 Activation Z-Score,−1.671
same,upstream regulator MIR-29 Activation Z-Score,1.128
same,upstream regulator MIR-450A-5P (AND OTHER MIRNAS W/SEED UUUGCGA) Predicted Activation State,activated
same,upstream regulator MIRLET7 Activation Z-Score,0
same,upstream regulator MLXIPL Predicted Activation State,inhibited
same,upstream regulator MTORC1 Activation Z-Score,−2.087
same,upstream regulator MTORC1 Predicted Activation State,inhibited
same,upstream regulator MYB Activation Z-Score,−1.742
same,upstream regulator NFAT (FAMILY) Activation Z-Score,−2.176
same,upstream regulator NFAT (FAMILY) Predicted Activation State,inhibited
same,upstream regulator NFATC1 Activation Z-Score,−1.4
same,upstream regulator NFE2L2 Activation Z-Score,−1.966
same,upstream regulator NFIL3 Activation Z-Score,−2.2
same,upstream regulator NFIL3 Predicted Activation State,inhibited
same,upstream regulator NFKBIA Activation Z-Score,−0.758
same,upstream regulator NR4A2 Activation Z-Score,0.898
same,upstream regulator NREP Activation Z-Score,0.218
same,upstream regulator NRG1 Activation Z-Score,−1.949
same,upstream regulator P38 MAPK Activation Z-Score,−2.405
same,upstream regulator P38 MAPK Predicted Activation State,inhibited
same,upstream regulator PDCD1 Activation Z-Score,0.055
same,upstream regulator PDX1 Activation Z-Score,0.24
same,upstream regulator POSTN Activation Z-Score,−1
same,upstream regulator PRDM1 Activation Z-Score,0.122
same,upstream regulator PRKCZ Activation Z-Score,−0.167
same,upstream regulator PTEN Activation Z-Score,0.449
same,upstream regulator PTPRJ Activation Z-Score,0
same,upstream regulator RAS Activation Z-Score,−2.375
same,upstream regulator RAS Predicted Activation State,inhibited
same,upstream regulator RXRA Activation Z-Score,1.069
same,upstream regulator SATB2 Activation Z-Score,−0.152
same,upstream regulator SIRT6 Activation Z-Score,0.064
same,upstream regulator SMAD2 Activation Z-Score,−1.681
same,upstream regulator SMAD7 Activation Z-Score,−0.135
same,upstream regulator SNCA Activation Z-Score,−0.246
same,upstream regulator SORL1 Activation Z-Score,−2.714
same,upstream regulator SORL1 Predicted Activation State,inhibited
same,upstream regulator SPI1 Activation Z-Score,−1.174
same,upstream regulator SREBF1 Activation Z-Score,−3.191
